# Read-outs that look alike come from different tables or passages of the source.
# What was measured:
# cytochrome c = type: cell-based, mouse; conditions: for cyt c (composite Z-score): normalized score vs mock-treated (DMSO) wells
# OXPHOS gene expression = type: cell-based, mouse
# reactive oxygen species = type: cell-based, mouse
# mtOXPHOS transcripts = type: cell-based, mouse
# [1] = test system: mitochondrial membrane potential; type: cell-based, mouse
# [2] = test system: cellular dehydrogenase activity
# nuOXPHOS transcripts = type: cell-based, mouse
# [3] = Conc 20 μM, normalized score vs mock-treated (DMSO) wells
# [4] = composite Z-score vs mock-treated (DMSO) wells, concentration of each compound in μM
# [5] = normalized composite Z-score vs mock-treated (DMSO) wells, Conc 20 μM
# [6] = composite Z-score vs mock-treated (DMSO) wells, Conc 20 μM
# [7] = composite Z-score vs DMSO, Conc 20 μM
# [8] = 20 μM, composite Z-score vs DMSO
molecule,measurement,setting,value
C=C1C2CC[C@@]3(C)[C@H](c4ccoc4)OC(=O)C[C@]13O[C@H]1C[C@H](OC(C)=O)C(C)(C)[C@H](CC(=O)OC)[C@@]21C,cyt c (composite Z-score),cytochrome c; Conc 20 μM,−0.069
same,GE-HTS (composite Z-score),OXPHOS gene expression; [3],0.772
same,ROS (composite Z-score),reactive oxygen species; [3],−0.319
same,Viability (composite Z-score),C2C12 myotubes; [3],−0.316
same,mitoOX (composite Z-score),mtOXPHOS transcripts; [3],1.332
same,ΔΨm (composite Z-score),[1]; [3],−0.388
same,MTT (composite Z-score),[2]; [3],−0.881
same,nucOX (composite Z-score),nuOXPHOS transcripts; [3],0.446
CC(C(=O)O)[C@H]1CCC2C3CC=C4C[C@@H](O)CC[C@]4(C)C3CC[C@@]21C (some centres unmarked),cyt c,cytochrome c; [4],−0.309
same,GE-HTS,OXPHOS gene expression; [4],0.756
same,ROS,reactive oxygen species; [4],0.315
same,Viability,C2C12 myotubes; [4],−0.295
same,mitoOX,mtOXPHOS transcripts; [4],0.486
same,ΔΨm,[1]; [4],−0.402
same,MTT,[2]; [4],−0.244
same,nucOX,nuOXPHOS transcripts; [4],0.793
CC(=O)O[C@H]1CC[C@]2(C)C(C[C@H](OC(C)=O)[C@]3(C)C4=CC(=O)OC(c5ccoc5)[C@@]4(C)CCC23)C1(C)C (some centres unmarked),cyt c (composite Z-score),cytochrome c; Conc 20 μM,0.161
same,GE-HTS (composite Z-score),OXPHOS gene expression; [3],−1.124
same,ROS (composite Z-score),reactive oxygen species; [3],1.848
same,Viability (composite Z-score),C2C12 myotubes; [3],−0.292
same,mitoOX (composite Z-score),mtOXPHOS transcripts; [3],−0.653
same,ΔΨm (composite Z-score),[1]; [3],−0.208
same,MTT (composite Z-score),[2]; [3],−0.810
same,nucOX (composite Z-score),nuOXPHOS transcripts; [3],−1.228
COc1ccc2c(c1)C1(C)CCC(=O)CC1CC2 (centres unmarked),cyt c (composite Z-score),cytochrome c; Conc 20 μM,−0.239
same,GE-HTS (composite Z-score),OXPHOS gene expression; [3],0.129
same,ROS (composite Z-score),reactive oxygen species; [3],0.625
same,Viability (composite Z-score),C2C12 myotubes; [3],−1.914
same,mitoOX (composite Z-score),mtOXPHOS transcripts; [3],0.061
same,ΔΨm (composite Z-score),[1]; [3],−0.939
same,MTT (composite Z-score),[2]; [3],−1.993
same,nucOX (composite Z-score),nuOXPHOS transcripts; [3],0.140
O=C(O)c1nc2cc(Cl)c(Cl)cc2nc1O,cyt c (composite Z-score),cytochrome c; Conc 20 μM,0.217
same,GE-HTS (composite Z-score),OXPHOS gene expression; [3],−0.320
same,ROS (composite Z-score),reactive oxygen species; [3],0.666
same,Viability (composite Z-score),C2C12 myotubes; [3],0.109
same,mitoOX (composite Z-score),mtOXPHOS transcripts; [3],−0.230
same,ΔΨm (composite Z-score),[1]; [3],−0.521
same,MTT (composite Z-score),[2]; [3],−0.131
same,nucOX (composite Z-score),nuOXPHOS transcripts; [3],−0.313
O=C(O)CCC/C=C\CC1COC(C(F)(F)F)OC1c1ccccc1O (centres unmarked),cyt c,cytochrome c; [4],−0.437
same,GE-HTS,OXPHOS gene expression; [4],0.344
same,ROS,reactive oxygen species; [4],0.713
same,Viability,C2C12 myotubes; [4],−0.413
same,mitoOX,mtOXPHOS transcripts; [4],0.594
same,ΔΨm,[1]; [4],−0.087
same,MTT,[2]; [4],−0.548
same,nucOX,nuOXPHOS transcripts; [4],0.169
CC1(C)CC2C1CC[C@]1(CBr)CCC3C(CC(=O)O)C(=O)O[C@@]32C1 (some centres unmarked),cyt c,cytochrome c; [5],0.551
same,GE-HTS,OXPHOS gene expression; [5],−1.029
same,ROS,reactive oxygen species; [5],0.604
same,Viability,C2C12 myotubes; [5],−0.498
same,mitoOX,mtOXPHOS transcripts; [5],−1.624
same,ΔΨm,[1]; [5],−0.084
same,MTT,[2]; [5],−0.892
same,nucOX,nuOXPHOS transcripts; [5],−0.612
COC(=O)[C@@H]1OC(=O)C2OC23[C@@]1(C)CCC1[C@]2(C)C(C[C@@H](O)[C@]13C)C(C)(C)[C@H](OC(C)=O)C[C@@H]2OC(C)=O (some centres unmarked),cyt c,cytochrome c; [6],1.004
same,GE-HTS,OXPHOS gene expression; [6],−0.376
same,ROS,reactive oxygen species; [6],0.177
same,Viability,C2C12 myotubes; [6],0.474
same,mitoOX,mtOXPHOS transcripts; [6],−0.039
same,ΔΨm,[1]; [6],−0.579
same,MTT,[2]; [6],−0.427
same,nucOX,nuOXPHOS transcripts; [6],−0.485
COC(=O)CCC(=O)O[C@H]1CC[C@@]2(C)[C@@H](CC[C@@H]3[C@@H]2C(=O)C(O)[C@]2(C)[C@@H]4[C@H](C[C@@H]32)O[C@]2(CC[C@@H](C)CO2)[C@H]4C)C1 (some centres unmarked),cyt c,cytochrome c; [7],−0.005
same,GE-HTS,OXPHOS gene expression; [7],−0.063
same,ROS,reactive oxygen species; [7],0.918
same,Viability,C2C12 myotubes; [7],−0.315
same,mitoOX,mtOXPHOS transcripts; [7],−0.217
same,ΔΨm,[1]; [7],−0.760
same,MTT,[2]; [7],−1.387
same,nucOX,nuOXPHOS transcripts; [7],0.054
COC(=O)c1cccc2cc(OC)c(OC)c(OC)c2c1=O,cyt c,cytochrome c; [6],−0.229
same,GE-HTS,OXPHOS gene expression; [6],0.231
same,ROS,reactive oxygen species; [6],0.800
same,Viability,C2C12 myotubes; [6],−0.836
same,mitoOX,mtOXPHOS transcripts; [6],0.117
same,ΔΨm,[1]; [6],−0.254
same,MTT,[2]; [6],−2.317
same,nucOX,nuOXPHOS transcripts; [6],0.287
NC(=O)c1ccc[n+]([C@@H]2O[C@H](COP(=O)([O-])OP(=O)(O)OC[C@H]3O[C@@H](n4cnc5c(N)ncnc54)[C@H](OP(=O)(O)O)[C@@H]3O)[C@@H](O)[C@H]2O)c1,cyt c,cytochrome c; [8],0.101
same,GE-HTS,OXPHOS gene expression; [8],−0.424
same,ROS,reactive oxygen species; [8],−0.038
same,Viability,C2C12 myotubes; [8],−0.562
same,mitoOX,mtOXPHOS transcripts; [8],−0.615
same,ΔΨm,[1]; [8],−0.582
same,MTT,[2]; [8],−1.286
same,nucOX,nuOXPHOS transcripts; [8],−0.307
O=C(O[C@@H]1Cc2c(O)cc(O)cc2O[C@@H]1c1cc(O)c(=O)c2c(O)c(O)cc([C@H]3Oc4cc(O)cc(O)c4C[C@H]3OC(=O)c3cc(O)c(O)c(O)c3)c2c1)c1cc(O)c(O)c(O)c1 [theaflavin digallate],GE-HTS,OXPHOS gene expression,0.783
same,ROS,reactive oxygen species,0.718
same,Viability,C2C12 myotubes,−1.408
same,mitoOX,mtOXPHOS transcripts,0.275
same,ΔΨm,[1],−0.326
same,MTT,[2],−0.518
same,nucOX,nuOXPHOS transcripts,0.948
cinnarazine,GE-HTS (composite Z-score),OXPHOS gene expression,0.362
same,ROS,reactive oxygen species,0.777
same,ROS (composite Z-score),reactive oxygen species,1.252
same,Viability,C2C12 myotubes,0.752
same,Viability (composite Z-score),C2C12 myotubes,−0.692
same,mitoOX (composite Z-score),mtOXPHOS transcripts,0.349
same,ΔΨm,[1],0.544
same,ΔΨm (composite Z-score),[1],−0.711
same,MTT,[2],−1.003
same,MTT (composite Z-score),[2],−0.009
same,nucOX (composite Z-score),nuOXPHOS transcripts,0.338
nonoxynol-9,GE-HTS,OXPHOS gene expression; [4],−0.872
same,ROS,reactive oxygen species; [4],0.528
same,Viability,C2C12 myotubes; [4],−0.209
same,mitoOX,mtOXPHOS transcripts; [4],−0.138
same,ΔΨm,[1]; [4],−1.484
same,MTT,[2]; [4],−1.228
same,nucOX,nuOXPHOS transcripts; [4],−1.114
